These results are taken from US20250304928A1, “AN OMEGA-TRANSAMINASE MUTANT BASED ON […] SEQUENCE RECONSTRUCTION” (priority 2021, published 2025).

Series [1] has as its target Aspergillus terreus ω-transaminase, wild type (WT-AT), SEQ ID NO. 2 (Aspergillus terreus, UniProt Q0C8G1). Nature of the series: Enzyme kinetic parameters of wild type ω-transaminase (WT-AT). The format is biochemical. The conditions noted are these: PBS 50 mM, pH 8.0, 0.01 mM PLP. As to the method:
The wild-type ω-transaminase from Aspergillus terreus has an amino acid sequence as shown in SEQ ID NO. 2, and has a gene sequence as shown in SEQ ID NO. 1.
(§1) The enzyme activity of wild type and mutant ω-transaminase at different concentrations was determined by enzyme activity assay. The reaction rates V for different substrates as well as different substrate concentrations [S] were brought into the Michaelis-Menten equation V=Vmax×[S]/(Km+[S]), nonlinear curve fit was performed using Origin 8.0 software, and the enzyme kinetic parameters Km and Vmax were calculated for wild type and mutants; the conversion number kcat and catalytic efficiency kcat/Km were calculated for wild type and mutants from the equation kcat=Vmax/[E], where [E] was the molar concentration of the enzyme.

Series [2] concerns the target T1, Aspergillus terreus ω-transaminase mutant Ancata-101 (D5E-A12Q-I17V-S20A-T21S-E22A-T23S-A42H-I77L-T78S-T85S-L87M-R90K-D96E-Q97E-E104D-T130S-R131K-D134E-I135L-13 (Aspergillus terreus, UniProt Q0C8G1, A12Q/A174S/A195S/A246V/A313P/A42H/D134E/D153E/D5E/D96E/E104D/E22A/E248R/E323S/F250N/F258V/G292D/H210N/I135L/I175M/I17V/I295V/I77L/INS138N/INS325KKSG/L87M/M288K/N245D/N322E/N325S/Q236E/Q294K/Q97E/R131K/R266Q/R324A/R90K/S20A/T130S/T21S/T23S/T284S/T78S/T85S/V143I/V157T/V162I/V163I/V188T)).
T1 construct: ancestral reconstruction Ancata-101
Description: Enzyme kinetic parameters of mutant ω-transaminase Ancata-101. The series is classed as biochemical. As to the method: as §1

Series [3] addresses T2, Aspergillus terreus ω-transaminase mutant Ancata-124 (D5E-A12Q-I17V-S20A-T21S-E22A-T23S-A42H-I77L-T78S-T85A-R90K-D96E-Q97E-E104D-T130S-R130K-I135L-138insN-V143I (Aspergillus terreus, UniProt Q0C8G1, A12Q/A195S/A246V/A313P/A42H/D153E/D5E/D96E/E104D/E22A/E248R/E323S/F250N/F258V/G292D/H210N/I135L/I17V/I295V/I77L/INS138N/INS325KS/L263M/M154V/M288K/N245D/N322E/N325S/Q236E/Q294K/Q97E/R131K/R266Q/R324A/R90K/S20A/T130S/T21S/T23S/T284S/T78S/T85A/V143I/V157T/V162I/V163I)).
T2 construct: ancestral reconstruction Ancata-124
Nature of the series: Enzyme kinetic parameters of mutant ω-transaminase Ancata-124. The format is biochemical. As to the method: as §1

The subject of series [4] is CC(=O)C(=O)O. Described as above. The format is biochemical, Aspergillus terreus. As to conditions: other: PBS 50 mM, pH 8.0, 0.01 mM PLP, 25.0 °C.
The test system of series [5] is C[C@@H](N)c1ccccc1. Described as above. The format is biochemical, Aspergillus terreus. The conditions noted are these: other: PBS 50 mM, pH 8.0, 0.01 mM PLP, 25.0 °C.
The test system of series [6] is CC(=O)C(=O)O. Nature of the series: Enzyme kinetic parameters of mutant ω-transaminase Ancata-101. The series is classed as biochemical, Aspergillus terreus. As to conditions: other: PBS 50 mM, pH 8.0, 0.01 mM PLP.
The test system of series [7] is C[C@@H](N)c1ccccc1. Described as above. The series is classed as biochemical, Aspergillus terreus. As to conditions: other: PBS 50 mM, pH 8.0, 0.01 mM PLP.

The Km is the concentration of substrate that gives half-maximal velocity. `CC(=O)C(=O)O` [pyruvate, pyruvic acid]: the “kcat (pyruvate)” value turned out to be 0.50 ± 0.01 s⁻¹ in series [1]; 1.50 ± 0.03 s⁻¹ in series [2] (PBS 50 mM, pH 8.0, 0.01 mM PLP); 0.74 ± 0.03 s⁻¹ in series [3] (PBS 50 mM, pH 8.0, 0.01 mM PLP). Besides, the “kcat/Km (pyruvate)” value in series [1] is 2220 M⁻¹ s⁻¹; in series [2] (PBS 50 mM, pH 8.0, 0.01 mM PLP), 1300 M⁻¹ s⁻¹; in series [3] (PBS 50 mM, pH 8.0, 0.01 mM PLP), 790 M⁻¹ s⁻¹. Besides, the Michaelis-Menten constant (Km) in series [1] (read-out: Km (pyruvate)) came to 230 ± 20 µM. Besides, the “catalytic efficiency for pyruvic acid compared with wild type” value is given as “lower than that of the wild type” in series [2] (in words, versus wild type) and “lower than that of the wild type” in series [3] (in words, versus wild type).

Turning to “Aspergillus terreus ω-transaminase mutant Ancata-124 (D5E-A12Q-I17V-S20A-T21S-E22A-T23S-A42H-I77L-T78S-T85A-R90K-D96E-Q97E-E104D-T130S-R130K-I135L-138insN-V143I-D153E-M154V-V157T-V162I-V163I-A195S-H210N-Q236E-N245D-A246V-E248R-F250N-F258V-L263M-R266Q-T284S-M288K-G292D-Q294K-I295V-A313P-N322E-E323S-R324A-N325S-325insKS), SEQ ID NO. 6 (Aspergillus terreus NIH2624; A12Q/A195S/A246V/A313P/A42H/D153E/D5E/D96E/E104D/E22A/E248R/E323S/F250N/F258V/G292D/H210N/I135L/I17V/I295V/I77L/INS138N/INS325KS/L263M/M154V/M288K/N245D/N322E/N325S/Q236E/Q294K/Q97E/R131K/R266Q/R324A/)”, the Michaelis-Menten constant (Km) in the series with CC(=O)C(=O)O [4] worked out at 930 ± 10 µM; in the series on C[C@@H](N)c1ccccc1 [5], 280 ± 10 µM.

Regarding “Aspergillus terreus ω-transaminase mutant Ancata-101 (D5E-A12Q-I17V-S20A-T21S-E22A-T23S-A42H-I77L-T78S-T85S-L87M-R90K-D96E-Q97E-E104D-T130S-R131K-D134E-I135L-138insN-V143I-D153E-V157T-V162I-V163I-A174S-I175M-V188T-A195S-H210N-Q236E-N245D-A246V-E248R-F250N-F258V-R266Q-T284S-M288K-G292D-Q294K-I295V-A313P-N322E-E323S-R324A-N325S-325insKKSG), SEQ ID NO. 4 (Aspergillus terreus NIH2624; A12Q/A174S/A195S/A246V/A313P/A42H/D134E/D153E/D5E/D96E/E104D/E22A/E248R/E323S/F250N/F258V/G292D/H210N/I135L/I175M/I17V/I295V/I77L/INS138N/INS325KKSG/L87M/M288K/N245D/N322E/N325S/Q236E/Q294K/Q97E/R131K)”, the Km in the series with CC(=O)C(=O)O [6] stood at 1150 ± 20 µM; in the series on C[C@@H](N)c1ccccc1 [7], 280 ± 30 µM.

In the case of `C[C@@H](N)c1ccccc1` [α-MBA, (R)-(+)-α-methylbenzylamine], the “Km (α-MBA) compared with wild type” value is on record as “slightly higher than that of the wild type” in series [2] (in words, versus wild type) and “slightly higher than that of the wild type” in series [3] (in words, versus wild type).
